In patent US9376369B2, “Anti-cholesterolemic compounds and methods of use” (priority 2006, dated 2016):

Tests used:
[1] = test system: human aortic smooth muscle cells; experiment: Cholesterol biosynthesis ([14C]acetate incorporation) in cultured cells with ox-LDL; assay type: cell-based; settings: for hypocholesterolemic activity: purified compounds isolated from EO, cell-based bioassay
Procedure: Cells were incubated with aqueous extracts of O. sanctum (JH-1), EO (JH-2), W. somnifera (JH-3) and EuMil (JH-4) at concentration 500 μg/ml in medium supplemented with 100 μg/ml oxidized LDL. Cells incubated with 100 μg/ml ox-LDL served as a control. [14C] acetate (2 μCi/ml) was added and incorporation of radioactivity into cholesterol and cholesteryl esters was measured after 24 h of incubation in standard cell culture conditions. Lovastatin (10 μM) plus ox-LDL served as a positive control.
H-ASMC (×10^5) were seeded in plastic 6-well trays and grown in smooth muscle cells medium-2 (Cambrex). Incubation was pursued in a water-jacketed incubator with 5% CO2 and 95% air. After the cells reached confluence medium was replaced by plain serum-free medium. Following incubation for 24 h fresh medium, 100 μg/ml ox-LDL and various herbal fractions solubilized in 12.5% DMSO were added. Cells that were incubated with lovastatin (10 μM) served as a positive control in all experiments.
Cells were incubated with and without ox-LDL and EuMil/ingredients and [14C] acetate ([…], 24 h). Next, medium was removed; the monolayers were washed three times with PBS. Cells were extracted with hexane:isopropanol (3:2 by volume, 2×3 ml) at room temperature. The extracts were pooled in glass tubes and total lipid extract dried in nitrogen atmosphere. 1N NaOH (1 ml) was added to each tube to solubilize proteins and the incubated overnight in open air. Next, water (2 ml) was added to the air dried tubes, the contents were mixed and utilized for protein measurement using BCA protein assay kit (Pierce, Rockford, Ill.)
The total lipid extracts were dried in stream of nitrogen, re-suspended in chloroform-methanol (2:1 by volume) and applied on a HPTLC silica gel plate. Standard solutions of cholesterol, monolein, diolein, triolein, fatty acid and cholesteryl oleate (50 μg each) also were applied to the plate. The plates were developed in heptane-ether-acetic acid (85:15:1 by volume). Following development, the plates were dried in air and exposed to an X-ray film for 2-3 days at […]. After the films were developed, the HPTLC plates were immersed in iodine vapors to identify the migration of individual neutral lipid molecular species. Gel areas, corresponding to cholesterol were scraped and radioactivity was measured using Beckman liquid scintillation spectrometer. The data was expressed as counts per mg protein. The incorporation of radioactivity in cells incubated with oxidized LDL was considered as 100% (control). All experimental values in cells treated with EuMil/ingredients plus oxidized LDL were expressed as a percentage of the control. All assays were conducted in triplicate.

[2] = test system: human aortic smooth muscle cells; experiment: Cholesterol efflux ([3H]cholesterol); assay type: cell-based; settings: 24 h with fractions after [3H]cholesterol labelling
F344 rats = settings: both sexes, 5% GA in diet, week 1 to end of 13 weeks; cited from earlier work
[3] = test system: human aortic smooth muscle cells; experiment: Cholesterol uptake ([3H]cholesterol); assay type: cell-based; settings: [3H]cholesterol 5 μCi/ml, serum-free medium, 24 h
Procedure: FIG. 11 is a graph showing the effect of active compounds from EO on uptake of cholesterol in human aortic smooth muscle cells. Confluent culture of cells grown in 96 well plates was incubated in serum-free medium with [3H]cholesterol (5 μCi/ml) with and without active fractions. After 24 h the uptake of cholesterol was measured by scintillation spectrometry.
Confluent culture of human aortic smooth muscle cells were pre-incubated in serum-free DMEM for 24 h. Next, fresh medium and [3H]cholesterol (5 μCi/ml) plus various herbal compounds were added. Following incubation for 24 h and 48 h, [3H]cholesterol taken up by cell was measured by solubilization in 1 M NaOH and radioactivity measured.

[4] = test system: human aortic smooth muscle cells; experiment: Measurement of the level (mass) of cholesterol in cells; assay type: cell-based; settings: active fractions 5 μg/ml
Procedure: FIG. 9 is a graph showing the effect of active fractions from EO on cholesterol level in human ASMC. Cells were incubated with active fractions (5 μg/ml) and cholesterol mass was determined.
Following treatment cells were extracted with hexane-isopropanol 3:2 by volume as described above. The pooled extracts were dried in a stream of nitrogen and subjected to measurement of total cholesterol mass using a cholesterol kit (WAKO chemicals, VA) with cholesterol as the standard. The data was expressed as μg cholesterol per mg protein.

[5] = Behaviour of mucic acid gallates in aqueous solution; assay type: physicochemical; settings: as previously reported [22]
Description: It should be noted that the mucic acid gallates derivatives 7 and 9 equilibrate in aqueous solutions as previously reported, while 1-methyl mucate-2-gallate (8) is not an artifact of the isolation procedure as it could be isolated when only ethanol, water and acetonitrile were used.

H-ASMC = experiment: Cell proliferation ([3H]thymidine incorporation); assay type: cell-based, human
Procedure: Following incubation for 18 h with and without ox-LDL and EuMil/ingredients and lovastatin [3H]thymidine ([…]) was added in 96 well dishes and incubation continued for 6 h at 37° C. Next, the cells were washed and the incorporation of [3H]thymidine into DNA was measured employing scintillation spectrometry. The data was calculated as dpm/well. All experimental values were expressed as a percentage of the control values (cells incubated with ox-LDL alone).

[6] = 10 μM plus 100 μg/ml ox-LDL, 24 h, ox-LDL alone = control

In the case of O=C(O)c1cc(O)c(O)c(O)c1 [Compound 1, gallic acid], the hypocholesterolemic activity [1] is reported as “hypocholesterolemic active compounds”, the “efflux of cholesterol from cultured H-ASMC” value (shortened to “efflux of cholesterol”) [2] is reported as “effective” and the “efflux of cholesterol” value ([2]; listed as gallate) is reported as “very effective”. The “body weight gain versus untreated controls” value (F344 rats) was “significantly lower”.
With COC(=O)c1cc(O)c(O)c(O)c1 [Compound 2a, methyl gallate] the hypocholesterolemic activity [1] was “hypocholesterolemic active compounds”, the “efflux of cholesterol” value [2] was “very effective” and the “inhibition of cholesterol uptake in H-ASMC” value [3] was “markedly inhibit”.
With CCOC(=O)c1cc(O)c(O)c(O)c1 [Compound 2b, ethyl gallate] the hypocholesterolemic activity [1] was “hypocholesterolemic active compounds”.
With O=C(OCC(O)CO)c1cc(O)c(O)c(O)c1 (centres unmarked) [Compound 3, glycerol-1-gallate] the hypocholesterolemic activity [1] was “hypocholesterolemic active compounds”.
For O=C(O[C@@H]1O[C@H](CO)[C@@H](O)[C@H](O)[C@H]1O)c1cc(O)c(O)c(O)c1 [Compound 4, glucose-1-gallate (GG1)], the hypocholesterolemic activity [1] was “hypocholesterolemic active compounds”.
In the case of O=C(OC[C@H]1OC(OC(=O)c2cc(O)c(O)c(O)c2)[C@H](O)[C@@H](O)[C@@H]1O)c1cc(O)c(O)c(O)c1 (some centres unmarked) [Compound 6, glucose-1,6-digallate (DGG16)], the hypocholesterolemic activity [1] is reported as “hypocholesterolemic active compounds” and the “cellular mass / level of cholesterol in ASMC” value (“cellular mass / level” for short) [4] is reported as “effective in decreasing cholesterol level”.
In the case of COC(=O)C(OC(=O)c1cc(O)c(O)c(O)c1)C(O)C(O)C(O)C(=O)O (centres unmarked) [Compound 8, 1-methyl mucate-2-gallate], the hypocholesterolemic activity [1] is reported as “hypocholesterolemic active compounds” and the “cellular mass / level” value [4] is reported as “effective in decreasing cholesterol level”.
In the case of O=C(OC(C(=O)O)C1OC(=O)C(O)C1O)c1cc(O)c(O)c(O)c1 (centres unmarked) [Compound 9, mucic acid 1,4-lactone 5-gallate], the hypocholesterolemic activity [1] is reported as “hypocholesterolemic active compounds”, the “cellular mass / level” value [4] is reported as “effective in decreasing cholesterol level” and the “stability in aqueous solutions” value [5] is reported as “equilibrate”.
For CC[C@H](C)C(=O)O[C@H]1C[C@@H](C)C=C2C=C[C@H](C)[C@H](CC[C@@H]3C[C@@H](O)CC(=O)O3)[C@H]21 [Lovastatin, lovastatin, reference compound], the “biosynthesis of cholesterol compared to control” value [1, 6] was ~20%, the “biosynthesis of cholesteryl esters compared to control” value [1, 6] was ~50% and the “inhibition of cholesterol uptake in H-ASMC” value [3] was “not effective”. The “effect on cell proliferation” value (H-ASMC) was “did not appear to inhibit”.
In the case of glucose-6-gallate (GG6) [Compound 5], the hypocholesterolemic activity [1] is reported as “hypocholesterolemic active compounds” and the “cellular mass / level” value [4] is reported as “effective in decreasing cholesterol level”.
In the case of mucic acid-2-gallate [Compound 7], the hypocholesterolemic activity [1] is reported as “hypocholesterolemic active compounds”, the “cellular mass / level” value [4] is reported as “effective in decreasing cholesterol level” and the “stability in aqueous solutions” value [5] is reported as “equilibrate”.
